{"source": "patent US12296050B2", "about": "“Pharmaceutical compositions comprising maralixibat and uses thereof” (Mirum Pharmaceuticals, Inc., priority 2023, dated 2025)", "origin": "cited, not measured here", "target": "T1, apical sodium co-dependent bile acid transport (Homo sapiens, UniProt Q12908)", "T1 sequence (Q12908 1-348)": "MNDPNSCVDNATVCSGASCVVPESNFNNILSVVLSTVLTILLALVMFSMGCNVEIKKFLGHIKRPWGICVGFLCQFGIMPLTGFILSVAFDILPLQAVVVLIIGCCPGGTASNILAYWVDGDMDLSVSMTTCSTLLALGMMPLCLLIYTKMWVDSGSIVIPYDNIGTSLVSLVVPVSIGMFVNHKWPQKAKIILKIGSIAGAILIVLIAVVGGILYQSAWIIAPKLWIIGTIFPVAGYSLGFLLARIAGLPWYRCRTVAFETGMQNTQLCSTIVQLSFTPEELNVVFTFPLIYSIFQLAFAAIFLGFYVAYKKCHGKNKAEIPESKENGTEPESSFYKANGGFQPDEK", "settings": "known from U.S. Pat. No. 5,994,391", "data": [{"compound": "CCCCC1(CCCC)CS(=O)(=O)c2ccc(N(C)C)cc2[C@@H](c2ccc(OCc3ccc(C[N+]45CCN(CC4)CC5)cc3)cc2)[C@H]1O.[Cl-]", "note": "[maralixibat chloride]", "values": [{"measurement": "Effect on apical sodium co-dependent bile acid transport, in words", "value": "inhibits"}]}]}
